Converted amounts (≈) assume the structure as drawn. Starred links: 1 amine or outer side, 2 acyl side, 3 side chain; linkers in the order of their positions; H or OH if unused. Positions of bridges follow the written chain, without caps; N, C: chain ends. Non-standard residues stand in square brackets, D forms with d. Residues, ends and D or L forms follow the SMILES beside them. *: point of attachment. Decanoyl(3R-OH) = CCCCCCC[C@@H](O)CC(=O)*; azaDab = NCCN(N[*:1])C(=O)[*:2]; dDab = NCC[C@@H](N)C(=O)O; Dab = NCC[C@H](N)C(=O)O
Tests used:
[1] = test system: A. baumannii ATCC 19606; conditions: ATCC 19606
Outline: (§1)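 Mid-log cultures grown in Mueller Hinton broth at 37° C were tested by 2-fold broth microdilution at 5×10^5 CFU/mL final. Compounds were dissolved in water and tested over a final range of 32 to 0.015 μg/mL.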

[2] = test system: A. baumannii GN_093 PmxR; conditions: GN 093 PmxR
Outline: as §1

[3] = test system: E. coli ATCC 25922; conditions: ATCC 25922
Outline: as §1

[4] = test system: K. pneumoniae ATCC 13883; conditions: ATCC 13883
Outline: as §1

[5] = test system: K. pneumoniae ATCC 700603, MDR; conditions: ATCC 700603
Outline: as §1

[6] = test system: K. pneumoniae ATCC BAA-2146, NDM-1 pos; conditions: ATCC BAA-2146
Outline: as §1

[7] = test system: K. pneumoniae GN_102 PmxR; conditions: GN 102 PmxR
Outline: as §1

[8] = test system: K. pneumoniae GN_106, PmxR; conditions: GN 106, PmxR
Outline: as §1

[9] = test system: P. aeruginosa ATCC 27853; conditions: ATCC 27853
Outline: as §1

[10] = test system: P. aeruginosa GN_043, PmxR; conditions: for MIC, P. aeruginosa FADDI-PA070, PmxR: strain name as in Table 11
Outline: as §1

[11] = test system: P. aeruginosa GN_105, PmxR; conditions: GN 105, PmxR
Outline: as §1

[12] = test system: S. aureus ATCC 25923, MSSA; conditions: ATCC 25923
Outline: as §1

[13] = in vitro; conditions: human
Outline: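 Cells were seeded at 4000 per well and allowed to attach for 24 h at 37 °C, 5% CO2, then exposed to compounds for 24 h. Resazurin (5 μM) was added for 2 h at 37 °C and fluorescence read at 560/590 nm. CC50 was derived by curve fitting of dose-dependent growth inhibition.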

[14] = in vitro; conditions: human; remark: listed apart in the source
Procedure: Cytotoxicity of the synthesised peptides was evaluated by comparison with commercially available colistin (polymyxin E), polymyxin B (Sigma chemical Co., St. Louis, Mo., U.S.A.) and synthetic octapeptin C4 by conducting lactate dehydrogenase (LDH) assay. CC50 values calculated based on curve fitting of dose dependent inhibition of cell growth represented the cytotoxicity of the peptide. Human kidney 2 (HK2) cells were seeded as 2000 cells per well in a 384 well cell culture plate in a final volume of 20 μL in DMEM/F12 medium (Invitrogen #11330057), in which 10% of FBS was added. Cells were incubated for 24 hours at 37° C., 5% CO2 to allow cells to attach to the plates. Similar conditions were employed for HEK293 and HepG2 cytotoxicity assays.
Cytotoxicity to HEK293 and HepG2 cells was determined using the resazurin assay (McMillian, M. K.; Li, L.; Parker, J. B.; Patel, L.; Zhong, Z.; Gunnett, J. W.; Powers, W. J.; Johnson, M. D. An improved resazurin-based cytotoxicity assay for hepatic cells; Cell Biol. Toxicol. 2002, 18, 157-173; O'Brien, J.; Wilson, I.; Orton, T.; Pognan, F. Investigation of the Alamar Blue (resazurin) fluorescent dye for the assessment of mammalian cell cytotoxicity. Eur. J. Biochem. 2000, 267, 5421-5426). In brief, HEK293 and HepG2 cells were seeded at 4000 cells/well in black-wall, clear-bottom 384-well plates (Corning, Australia) and incubated for 24 h at 37° C., 5% CO2. Compounds were then added into each well. After 24 h incubation, 5 μM resazurin was added per well and incubated at 37° C. for 2 h. Fluorescence intensity was then read using a Polarstar Omega with excitation/emission 560/590. The data was then analyzed using GraphPad Prism 6 software. CC50 values were determined using GraphPad Prism 6 software (Inc. La Jolla, Calif.).

Row | SMILES | MIC A. baumannii ATCC 19606 [1] [µg/mL] | MIC A. baumannii Cl Ptyela 10073 4512:2, PmxR [2] [µg/mL] | MIC E. coli ATCC 25922 [3] [µg/mL] | MIC K. pneumoniae ATCC 13883 [4] [µg/mL] | MIC K. pneumoniae ATCC 700603, MDR [5] [µg/mL] | MIC K. pneumoniae ATCC BAA-2146, NDM-1 pos [6] [µg/mL] | MIC K. pneumoniae Cl Koprana 10065 0661:1 PmxR [7] [µg/mL] | MIC K. pneumoniae Cl 183-16357-20352, PmxR [8] [µg/mL] | MIC P. aeruginosa ATCC 27853 [9] [µg/mL] | MIC, P. aeruginosa FADDI-PA070, PmxR [10] [µg/mL] | MIC P. aeruginosa PA9704, PmxR [11] [µg/mL] | MIC S. aureus ATCC 25923, MSSA [12] [µg/mL] | CC50 at 24 h [13] [µM] | CC50 at 24 h [14] [µM] | MIC A. baumannii GN_093 PmxR [2] [µg/mL] | MIC K. pneumoniae GN_102 PmxR [7] [µg/mL] | MIC K. pneumoniae GN_106, PmxR [8] [µg/mL] | MIC P. aeruginosa GN_043, PmxR ([10]; P. aeruginosa GN_043, PmxR) [µg/mL] | MIC P. aeruginosa GN_105, PmxR [11] [µg/mL]
1 | CCCCCCC[C@@H](O)CC(=O)N[C@H](CCN)C(=O)N[C@H]1CCNC(=O)[C@H](CC(C)C)NC(=O)[C@H](CCN)NC(=O)[C@H](CCN)NC(=O)[C@H](CC(C)C)NC(=O)[C@@H](Cc2ccccc2)NC(=O)N(CCN)NC1=O [compound 8636, 3(R)OH-nC9CO-D-Dab-cyc[L-Dab-azaDAB-D-Phe-L-Leu-L-Dab-L-Dab-L-Leu]] ({Decanoyl(3R-OH)}-[dDab][Dab][azaDab][dF]L[Dab][Dab]L; lactam 2-C) | >32 | >32 | 16 (≈ 15.3 µM) | >32 | 16 (≈ 15.3 µM) | >32 | >32 | >32 | 4 (≈ 3.83 µM) | >32 | >32 | 32 (≈ 30.6 µM) | > 300 | > 300 | – | – | – | – | –
2 | CCCCCCC[C@@H](O)CC(=O)N[C@H](CCN)C(=O)N[C@H]1CCNC(=O)[C@H](CC(C)C)NC(=O)[C@H](CCN)NC(=O)[C@H](CCN)NC(=O)[C@@H](CC(C)C)NC(=O)[C@H](Cc2ccccc2)NC(=O)[C@H](CCN)NC1=O [compound 8640, 3(R)OH-nC9CO-D-Dab-cyc[L-Dab-L-DAB-L-Phe-D-Leu-L-Dab-L-Dab-L-Leu]] ({Decanoyl(3R-OH)}-[dDab][Dab][Dab]F[dL][Dab][Dab]L; lactam 2-C) | >32 | – | 16 (≈ 15.3 µM) | >32 | 32 (≈ 30.6 µM) | >32 | – | – | 8 (≈ 7.66 µM) | – | – | 32 (≈ 30.6 µM) | > 300 | ≥ 300 | >32 | >32 | >32 | >32 | >32
3 | CCCCCCC[C@@H](O)CC(=O)N[C@H](CCN)C(=O)N[C@H]1CCNC(=O)[C@H](CC(C)C)NC(=O)N(CCN)NC(=O)[C@H](CCN)NC(=O)[C@H](CC(C)C)NC(=O)[C@@H](Cc2ccccc2)NC(=O)[C@H](CCN)NC1=O [compound 8782, 3(R)OH-nC9CO-D-Dab-cyc[L-Dab-L-DAB-D-Phe-L-Leu-L-Dab-azaDab-L-Leu]] ({Decanoyl(3R-OH)}-[dDab][Dab][Dab][dF]L[Dab][azaDab]L; lactam 2-C) | >32 | >32 | 16 (≈ 15.3 µM) | 32 (≈ 30.6 µM) | 32 (≈ 30.6 µM) | >32 | >32 | >32 | 2 (≈ 1.91 µM) | 8 (≈ 7.65 µM) | 32 (≈ 30.6 µM) | 16 (≈ 15.3 µM) | > 300 | > 300 | – | – | – | – | –
